Values after ≈ are worked out from the molar mass of the structure shown. Counter-ions that a name gives are not always drawn.

In data set [1] the test system is methicillin-resistant S. aureus (MRSA). Nature of the data set: Antibacterial assay. It is filed as cell-based, Staphylococcus aureus. Conditions: for inhibition at 200 µM: read-out: Inhibition rate against Methicillin-resistant Staphylococcus aureus. As to the method: (§1) In this study, the tested bacteria strains, Escherichia coli ATCC25922, Staphylococcus aureus subsp. aureus ATCC29213, Salmonella enterica subsp. enterica ATCC14028, Pseudomonas aeruginosa ATCC27853, methicillin-resistant S. aureus (MRSA) were purchased from China General Microbiological Culture Collection Center (CGMCC). All the strains were cultured in Mueller-Hinton broth (Oxoid, Thermo Fisher Scientific) at 37°C with shaking at 200 rpm overnight. Each culture was diluted 40-fold in fresh MHB broth and incubated at 37°C with shaking (200 rpm) for another 2–3 h. The mid-log phase cultures were diluted to a concentration of 5 × 10^5 CFU/mL by McFarland Standards, which was used as seeding solution for following antibacterial assays. Each well of the compound-containing 96-well plates was seeded with 100 μL of aforementioned seeding solution, giving a final compound concentration 200 μM. Plates were covered and incubated at 37°C for 24 h. The inhibitory rates were calculated by [(1-OD625sample)/OD625negative control] × 100%. Penicillin G sodium and ceftazidime were used as positive controls (inhibitory rates >99%) ([Zhao Z.-Z. et al., 2018]). Compounds were first tested for their potential against five bacterial strains at a single concentration of 200 μM. If the inhibitory rate above 50%, different concentrations of the compounds were further evaluated for the antibacterial ability.

Data set [2] concerns Salmonella enterica subsp. enterica ATCC14028. Description: Antibacterial assay. It is filed as cell-based. Conditions: for inhibition at 200 µM: Salmonella enterica, ATCC14028, 24 h, read-out: Inhibition rate against Salmonella enterica subsp. enterica. As to the method: as §1
Data set [3] concerns Staphylococcus aureus subsp. aureus ATCC29213. Nature of the data set: Antibacterial assay. It is filed as cell-based. As to conditions: 200 μM, 24 h. How it is done: as §1
Data set [4] concerns Pseudomonas aeruginosa ATCC27853. Nature of the data set: Antibacterial assay. It is filed as cell-based. As to conditions: for inhibition at 200 µM: Pseudomonas aeruginosa, ATCC27853, read-out: Inhibition rate against Pseudomonas aeruginosa. As to the method: as §1
Data set [5] deals with Escherichia coli ATCC25922. Nature of the data set: Antibacterial assay. It is filed as cell-based. How it is done: as §1
In data set [6] the target is β-amyloid precursor protein-cleaving enzyme 1 (β-secretase, BACE1) (Homo sapiens, UniProt P56817). Nature of the data set: BACE1 FRET assay. Conditions: 3 h at room temperature, read-out: IC50 BACE1 inhibition. It is filed as biochemical. How it is done:
β-amyloid precursor protein-cleaving enzyme 1 (β-secretase, BACE1) assays were performed according to the literature ([Qi et al., 2018]; [Yatsu et al., 2019]). First, 10 μL of the test sample, 10 μL of the 722 nM BACE1 substrate (Rh-[…]-Quencher in 50 mM ammonium bicarbonate), and 10 μL of the BACE1 enzyme (1 U/mL) were mixed in black 384-well plates and incubated for 3 h at room temperature. The fluorescence intensity was measured at 540 nm excitation and 590 nm emission using a microplate reader (Tecan Spark 10M, TECAN, Männedorf, Switzerland) at the time points of 1 h and 3 h. The BACE1 inhibition rate was calculated by the following equation: BACE1 inhibition rate (%) = {1–[(S–S0)–(B–B0)/(C–C0)–(B–B0)]} × 100, where C is the fluorescence of a DMSO control (enzyme, substrate, and assay buffer with DMSO) after 3 h of incubation, C0 is the fluorescence of the DMSO control at 1 h after incubation, B is the fluorescence of a non-enzyme control (substrate and assay buffer with DMSO) after 3 h of incubation, B0 is the fluorescence of the non-enzyme control at 1 h after incubation, S is the fluorescence of the tested samples (enzyme, sample solution, and substrate) after 3 h of incubation, and S0 is the fluorescence of the tested samples at 1 h after incubation. The IC50 values were calculated by GraphPad Prism software (v5.02, CA, USA).

A short description of data set [7]: in vitro. It is filed as cell-based. Conditions: human.
Description: The human lung cancer cell line A549 used in this study was purchased from Conservation Genetics CAS Kunming Cell Bank. The cells were cultured in high-glucose DMEM with 10% fetal bovine serum, 100 mg/mL streptomycin, 100 U/mL penicillin, and kept in an incubator at 37°C under an atmosphere of 5% CO2. The cell viability was assessed by 3-(4,5-dimethylthiazol-2-yl)-2,5-diphenyltetrazolium bromide (MTT) method. […] In brief, 100 μL of adherent cells was seeded to each well of a 96-well cell culture plate. The plate was kept for 12 h for adherence. […] However, suspended cells were seeded with the same density of 1 × 10^5 cells/mL every 100 μL of culture medium before adding the test compounds. Then the plate was incubated for another 48 h. After 48 h of incubation, 100 μg of MTT was added to each well, another 4 h of incubation was continued at 37°C. After removal of 100-μL culture medium, the cells were lysed with 20% SDS-50% DMF (100 μL). The remained lysates were subjected to measure the optical density value at 595 nm with a 96-well microtiter plate reader (Tecan Spark 10M, Switzerland). […] All the experiments were in triplicates. The IC50 value was calculated by a published method ([Chen et al., 2018]).
[8] abbreviates: Staphylococcus aureus, MRSA, 200 μM, 24 h.

β-amyloid precursor protein-cleaving enzyme 1 (β-secretase, BACE1), sequence (P56817 22-501 limits assumed): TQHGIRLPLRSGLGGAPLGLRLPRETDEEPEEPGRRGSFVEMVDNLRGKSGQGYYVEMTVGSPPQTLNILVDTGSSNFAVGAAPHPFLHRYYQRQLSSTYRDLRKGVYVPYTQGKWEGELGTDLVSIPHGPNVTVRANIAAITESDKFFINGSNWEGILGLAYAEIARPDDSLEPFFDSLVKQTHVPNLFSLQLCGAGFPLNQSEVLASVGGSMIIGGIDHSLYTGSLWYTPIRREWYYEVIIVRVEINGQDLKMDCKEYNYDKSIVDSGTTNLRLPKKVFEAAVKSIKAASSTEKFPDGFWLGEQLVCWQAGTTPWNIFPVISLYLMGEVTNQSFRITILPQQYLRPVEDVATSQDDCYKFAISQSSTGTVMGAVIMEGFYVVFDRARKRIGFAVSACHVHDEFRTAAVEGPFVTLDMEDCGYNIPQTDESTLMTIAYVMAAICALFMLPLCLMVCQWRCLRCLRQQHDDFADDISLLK

For the molecule “1,4,5-trihydroxy-7-methoxy-2-methyl-anthraquinone [Compound 14]”, the “Inhibition rate against Methicillin-resistant Staphylococcus aureus” value in data set [1] (200 μM, 24 h) was determined as 52.0%. The “Inhibition rate against Salmonella enterica subsp. enterica” value in data set [2] (200 μM, 24 h) was “– (This symbol “–” represent no activity)”. The “Inhibition rate against Staphylococcus aureus subsp. aureus” value in data set [3] is on record as “– (This symbol “–” represent no activity)”. Besides, in data set [4] (200 μM, 24 h), the “Inhibition rate against Pseudomonas aeruginosa” value stood at 38.2%. In data set [5] (200 μM, 24 h), the “Inhibition rate against Escherichia coli” value is given as “– (This symbol “–” represent no activity)”.
As for `CCCCCC1Cc2c(cc(CC=C(C)C)c(O)c2C(=O)O)O1` (racemic) [Compound 1, (±)-Chevalieric acid], the half-maximal inhibitory concentration (IC50) – broadly, the concentration that inhibits the measured activity by half – in data set [6] was 101 µM.
Regarding `CC(C)(O/N=C(\C(=O)N[C@@H]1C(=O)N2C(C(=O)[O-])=C(C[n+]3ccccc3)CS[C@H]12)c1csc(N)n1)C(=O)O` [Ceftazidime, ceftazidime, reference compound], the inhibition (as a rule, how much of the control response was suppressed) at 200 µM in data set [2] was 99.3%; in data set [5] (Escherichia coli, ATCC25922, 24 h, read-out: Inhibition rate against Escherichia coli), 99.8%.
On to `COc1cc(O)cc2c1C(=O)c1c(O)cc(C)cc1[C@@H]2[C@@H](C)CC(C)=O` [Compound 2, (10S,12S)-Chevalierone], for which, in data set [4] (200 μM, 24 h), the inhibition at 200 µM turned out to be 38.2%.
In the case of `COc1cc(O)cc2c1C(=O)c1c(O)cc(C)cc1[C@@H]2[C@H](C)CC(C)=O` [Compound 3, (10S,12R)-Chevalierone], the “antibacterial activity against MRSA (in words)” value in data set [1] was “significant antibacterial activities”. For the same molecule, the inhibition at 200 µM in data set [1] (setting [8]) was found to be 74.1%; in data set [4] (200 μM, 24 h), 81.9%. For the same molecule, in data set [4], the “antibacterial activity against P. aeruginosa (in words)” value is on record as “significant antibacterial activities”.
On to `COc1cc(O)cc2c1C(=O)c1c(O)cc(C)cc1[C@H]2[C@H](C)CC(C)=O` [Compound 4, (10R,12R)-Chevalierone], for which the “antibacterial activity against MRSA (in words)” value in data set [1] is “significant antibacterial activities”. Further, the inhibition at 200 µM in data set [1] (setting [8]) turned out to be 85%; in data set [4] (200 μM, 24 h), 81%. The “antibacterial activity against P. aeruginosa (in words)” value in data set [4] is “significant antibacterial activities”.
Turning to `COc1cc(O)cc2c1C(=O)c1c(O)cc(C)cc1[C@H]2[C@@H](C)CC(C)=O` [Compound 5, (10R,12S)-Chevalierone], the “antibacterial activity against MRSA (in words)” value in data set [1] is on record as “significant antibacterial activities”. The inhibition at 200 µM in data set [1] (setting [8]) worked out at 88.5%; in data set [4] (200 μM, 24 h) it was 91.5%. Also, the MIC50 – broadly, the lowest concentration that inhibits either 50% of growth or 50% of the strains tested, depending on the study – in data set [1] (Staphylococcus aureus, MRSA, read-out: MIC50 against MRSA) was found to be 44 µM (≈ 15.6 µg/mL). In addition, the “antibacterial activity against P. aeruginosa (in words)” value in data set [4] is given as “significant antibacterial activities”.
Take `CCCCCCCc1c(O)cc2c(c1C=O)OC(C)(C)C=C2` [Compound 6, asperglaucin B]: the IC50 in data set [6] is > 100 µM. Besides, the MIC (in general, the smallest concentration in the dilution series that meets the test's criterion for growth inhibition) in data set [1] (Staphylococcus aureus, MRSA, read-out: MIC against MRSA) is 44 µM (≈ 13.3 µg/mL).
In the case of `CCC/C=C/c1cc2c(C=O)c(O)c(CC=C(C)C)cc2o1` [Compound 7, 2-(2′,3-epoxy-1′,3′-heptadienyl)-6-hydroxy-5-(3-methyl-2-butenyl)benzaldehyde], the IC50 in data set [6] was > 100 µM.
Take `CCCCC/C=C/c1c(O)cc(CC=C(C)C)c(O)c1C=O` [Compound 8, tetrahydroauroglaucin]: the IC50 in data set [6] is 36.1 µM.
Take `CCC/C=C/C=C/c1c(O)cc(CC=C(C)C)c(O)c1C=O` [Compound 9, dihydroauroglaucin]: the half-inhibitory concentration (IC50) in data set [6] was > 100 µM.
With `CCCCCCCc1c(O)cc(CC=C(C)C)c(O)c1C=O` [Compound 10, flavoglaucin], in data set [6], the half-maximal inhibitory concentration (IC50) came to 40.9 µM. The molecule further returned a half-inhibitory concentration (IC50) at 48 h in data set [7] of 39.7 µM.
As for `C/C=C/C=C/CCc1c(O)cc(CC=C(C)C)c(O)c1C=O` [Compound 11, isodihydroauroglaucin], in data set [6], the 50% inhibitory concentration (IC50) came to 34.9 µM.
In the case of `CC(C)=CCc1cc2oc(=O)ccc2c(C=O)c1O` [Compound 12, cristaldehyde A], in data set [6], the IC50 was > 100 µM.
For `CCC[C@@H](O)[C@@H]1C=Cc2c(cc(CC=C(C)C)c(O)c2C=O)O1` [Compound 13, (3′S,4′R)-6-(3′,5-epoxy-4′-hydroxy-1′-heptenyl)-2-hyd roxy-3-(3″-methyl-2″-butenyl)benzaldehyde], the IC50 in data set [6] was > 100 µM.
Take `COc1cc(O)c2c(c1)C(=O)c1cc(C)cc(O)c1C2=O` [Compound 15, physcion]: the inhibition at 200 µM in data set [4] (200 μM, 24 h) was 38%.
As to `CC1(C)S[C@@H]2[C@H](NC(=O)Cc3ccccc3)C(=O)N2[C@H]1C(=O)O` [Penicillin G sodium, Penicillin G sodium salt, reference compound], the inhibition at 200 µM in data set [1] (setting [8]) is 60.5%; in data set [2], 75.7%; in data set [4] (200 μM, 24 h), 99.9%.
